Test [1] addresses T1, NURR-1/RXRα (Homo sapiens, UniProt P19793).
T1 construct: expressed in transfected cells; host or cells: Cos-7 cells
The experiment in a line: Transactivation test, NURR-1-Gal4/RXRα, luciferase reporter in Cos-7 cells. It counts as cell-based. To be noted: for Emax: COS-7, induction level relative to reference XCT0135908 at 2×10^−5 M (=100%), read-out: hNurr1_RXRaFL Emax (%); for EC50: Cos-7 cells, NURR-1-Gal4/RXRα, luciferase reporter, read-out: hNurr1_RXRaFL EC50.

Test [2] concerns mice treated with 1-methyl-4-phenyl-1,2,3,6-tetrahydropyridine (MPTP). In words: Functional activity in a model of mice treated with MPTP (striatal dopamine, TH mRNA in substantia nigra). Format: in vivo. Conditions: for action of MPTP (decrease in dopamine level in the striatum and in TH expression level in the substantia nigra): C57BL6/J mice, compound orally twice a day for 11 days, MPTP 20 mg/kg ip once a day for 5 days, FIGS. 1 and 2. As to the method:
3. Study of the Functional Activity in a Mouse Model
A third series of […] tests was carried out with the compounds according to the invention, for the purpose of verifying that the molecules indeed have the expected neuroprotective effect.
The compounds of examples 10 and 118 were tested on a model of mice treated with 1-methyl-4-phenyl-1,2,3,6-tetrahydropyridine (MPTP) in order to confirm their potential activity. MPTP is a neurotoxin which causes the permanent symptoms of Parkinson's disease by destroying the dopaminergic neurons in the substantia nigra. The following protocol: was used.
Male C57BL6/J mice, 10-12 weeks old at the beginning of the studies, were divided up into groups of 12 animals. The compounds wee administered orally, twice a day, for 11 days in total. The administration began 3 days before the treatment with the MPTP toxin at 20 mg/kg. The MPTP was administered once a day by intraperitoneal injection, for 5 days. The admistration of the compounds was continued during the 5 days of MPTP treatment and then for a further 3 days after the MPTP treatment. One group of mice received, orally, the carrier alone (solution of methylcellulose at 1%, 0.1% poloxamer). The annuals were eythanized after rhe final gavage and the striatum and the substantia nigra were removed. The dopamine was extracted from the striatum and the amount of dopamine (DA), expressed in ng per g of striatum (mean±SEM), was measured by high-performance liquid chromatography (HPLC) with electrochemical detection. The messenger RNAs were isolated from the substantia nigra, and the expression level of the mRNAs encoding tyrosine hydroxylase (TH) was measured by quantitative PCR.
The results obtained were reported in appended FIGS. 1 and 2.

Test [3] has as its system dopaminergic neurons of primary culture of rat embryo mesencephalon treated with MPP+. In words: Neuroprotection in primary culture of rat embryo mesencephalon treated with MPP+ (count of tyrosine hydroxylase expressing cells). Conditions: recombinant human BDNF 10 ng/mL = 100%, 2 days with MPP+. It counts as cell-based. In outline: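 Rat embryo (E15) mesencephalon cultures, 5 days, then MPP+ with or without compound on day 6 for 2 days. Tyrosine hydroxylase-immunolabelled cells counted by image analysis; activity expressed as percent of recombinant human BDNF (10 ng/mL) reference, set at 100%.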

Test [4] has as its target T2, NURR-1/RXRγ (Homo sapiens, UniProt P48443).
T2 construct: expressed in transfected cells; host or cells: Cos-7 cells
The experiment in a line: Transactivation test, NURR-1-Gal4/RXRγ, luciferase reporter in Cos-7 cells. Conditions: for Emax: COS-7, induction level relative to reference XCT0135908 at 2×10^−5 M (=100%), read-out: hNurr1_RXRgFL Emax (%); for EC50: Cos-7 cells, NURR-1-Gal4/RXRγ, luciferase reporter, read-out: hNurr1_RXRgFL EC50. Format: cell-based.

The structures appear in SMILES notation.

T1 sequence (P19793 whole entry): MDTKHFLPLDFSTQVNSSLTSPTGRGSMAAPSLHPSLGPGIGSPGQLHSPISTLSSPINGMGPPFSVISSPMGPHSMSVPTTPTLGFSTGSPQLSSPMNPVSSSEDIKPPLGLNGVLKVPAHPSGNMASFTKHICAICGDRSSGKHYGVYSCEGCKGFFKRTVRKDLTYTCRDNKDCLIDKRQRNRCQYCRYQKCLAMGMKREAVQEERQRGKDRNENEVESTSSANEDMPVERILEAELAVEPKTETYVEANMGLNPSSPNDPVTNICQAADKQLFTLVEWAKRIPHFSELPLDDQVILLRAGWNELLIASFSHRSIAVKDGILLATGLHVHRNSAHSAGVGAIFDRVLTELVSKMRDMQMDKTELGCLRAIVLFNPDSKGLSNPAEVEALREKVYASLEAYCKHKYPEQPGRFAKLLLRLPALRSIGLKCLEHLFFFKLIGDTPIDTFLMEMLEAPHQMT
T1 sequence (P43354 whole entry partner): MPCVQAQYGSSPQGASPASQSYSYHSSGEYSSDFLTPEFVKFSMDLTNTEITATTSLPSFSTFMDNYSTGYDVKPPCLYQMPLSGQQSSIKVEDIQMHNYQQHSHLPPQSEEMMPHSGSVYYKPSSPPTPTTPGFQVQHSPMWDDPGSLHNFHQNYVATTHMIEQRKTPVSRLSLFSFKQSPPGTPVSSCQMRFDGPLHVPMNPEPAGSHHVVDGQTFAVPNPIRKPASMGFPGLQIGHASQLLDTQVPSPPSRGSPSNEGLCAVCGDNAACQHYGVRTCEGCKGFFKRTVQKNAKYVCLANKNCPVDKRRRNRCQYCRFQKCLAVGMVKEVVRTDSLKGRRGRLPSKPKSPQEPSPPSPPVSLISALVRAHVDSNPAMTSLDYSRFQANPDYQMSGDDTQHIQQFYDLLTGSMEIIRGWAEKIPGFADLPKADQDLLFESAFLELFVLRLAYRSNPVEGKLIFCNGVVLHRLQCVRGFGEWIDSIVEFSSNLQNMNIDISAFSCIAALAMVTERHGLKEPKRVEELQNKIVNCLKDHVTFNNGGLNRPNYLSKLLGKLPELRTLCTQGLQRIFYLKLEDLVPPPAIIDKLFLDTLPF
T1 sequence (P04386 1-147 partner limits assumed): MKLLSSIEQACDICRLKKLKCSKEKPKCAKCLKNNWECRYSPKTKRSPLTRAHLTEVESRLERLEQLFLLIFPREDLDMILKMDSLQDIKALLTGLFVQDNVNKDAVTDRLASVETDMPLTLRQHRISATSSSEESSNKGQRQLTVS
T2 sequence (P48443 whole entry): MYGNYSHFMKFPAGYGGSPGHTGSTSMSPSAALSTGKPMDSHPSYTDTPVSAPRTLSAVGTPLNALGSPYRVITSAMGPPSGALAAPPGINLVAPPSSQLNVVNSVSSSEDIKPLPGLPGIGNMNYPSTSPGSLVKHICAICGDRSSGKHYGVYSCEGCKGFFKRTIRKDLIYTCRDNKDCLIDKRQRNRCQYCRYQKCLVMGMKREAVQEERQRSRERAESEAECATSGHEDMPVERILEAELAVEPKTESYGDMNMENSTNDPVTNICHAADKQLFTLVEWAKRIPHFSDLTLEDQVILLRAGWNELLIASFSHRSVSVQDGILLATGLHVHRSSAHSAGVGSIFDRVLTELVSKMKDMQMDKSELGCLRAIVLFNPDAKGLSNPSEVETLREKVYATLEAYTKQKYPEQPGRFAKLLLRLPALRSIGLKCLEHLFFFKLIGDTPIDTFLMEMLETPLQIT
T2 sequence (P43354 whole entry partner): as the sequence (P43354 whole entry partner) above
T2 sequence (P04386 1-147 partner limits assumed): as the sequence (P04386 1-147 partner limits assumed) above

As for `CC1(C)CCC(C)(C)c2cc(-c3cccc(N4CC(C(=O)O)C4)c3)ccc21` [Example 10, 1-[5-(1,1,4,4-tetrametyltetralin-6-yl)phenyl]azetidine-3-carboxylic acid], the Emax in test [1] was 84%; in test [4], 85%. The EC50 came to 8 nM in test [1] and 24 nM in test [4]. Moreover, the “action of MPTP (decrease in dopamine level in the striatum and in TH expression level in the substantia nigra)” value in test [2] is on record as “decrease the action of MPTP in a dose-dependent manner”. The “percentage of activity relative to the BDNF reference” value in test [3] (compound 1 μM) was determined as 44%; in test [3] (compound 10 μM), 74%.

Consider `CC(C)CC1CN(c2cccc(N3CC(C(=O)O)C3)c2)c2ccc(C(F)(F)F)cc2O1` (stereo not drawn) [Example 118, 1-[3-[2-isobutyl-7-(trilfuoromethyl)-2,3-dihydro-1,4-benzoxazin-4-yl]phenyl]azetidine-3-carboxylic acid], for which the Emax in test [1] worked out at 83%; in test [4], 80%. Moreover, the EC50 came out at 31 nM in test [1] and 47 nM in test [4]. Moreover, the “action of MPTP (decrease in dopamine level in the striatum and in TH expression level in the substantia nigra)” value in test [2] is reported as “decrease the action of MPTP in a dose-dependent manner”. Also, the “tyrosine hydroxylase (TH) expression level (mRNA, substantia nigra, quantitative PCR)” value in test [2] (orally twice a day for 11 days, MPTP-treated mice) was “capable of re-establishing the tyrosine hydroxylase expression level in the brain”. The figures for the “percentage of activity relative to the BDNF reference” value in test [3] (compound 1 μM) and in test [3] (compound 10 μM) were 81% and 61%, respectively.
